Source: patent US20190343908A1, “Therapeutic Combination for the Treatment of Cancer” (Nerium Biotechnology Inc., priority 2011, published 2019)

How the values were obtained:
[1] = system: 22Rv1 (human prostate cancer); test: Crystal Violet (CVE) viability assay, 22Rv1; format: cell-based; conditions: for Average absorbance, CVE 24 h / Average absorbance, CVE 48 h / Average absorbance, CVE 72 h: 22Rv1 Run 3
Text: (§1) The Sulforhodamine B and Crystal Violet assays provide information about protein and were used to complement the Methyl-Tetrazolium dye assay. […] It is used for the quantification of cellular proteins of cultured cells. The assay using Crystal Violet, a dye that binds electrostatically to proteins and stains DNA, provides a reliable, simple assay for measuring viability of cells.
(§2) The Methyl Tetrazolium, Sulforhodamine B, and Crystal Violet assays were used to assess cell viabilities. The incubation times were 24 hours, 48 hours, and 72 hours. The Nerium oleander extract Anvirzel™ (a hot water extract of oleander obtained from Salud Integral, Honduras) was tested in concentrations ranging from 0.01 ng/mL to 10 ng/mL.
(§3) Cells were detached by trypsinization (Trypsin-0.25% EDTA, Invitrogen, 25200-072) during the logarithmic phase of culture growth and plated in 96-well plates (18.000 cells/well) (Corning, Costar 359) in a final volume of 200 μl of medium per well. […] The absorbance was measured after 24 hours, 48 hours, and 72 hours of incubation.
(§4) For the Crystal Violet assay, the medium was removed from the 96-well plates, the plates rinsed with PBS (Sigma, P3813) and then the cells were […] by the addition of 10% formalin (MERCK, 1.04003.2500) for 20 minutes at RT. Formalin was removed and 0.25% aqueous crystal violet (Sigma, HT901), dissolved in water, was added for 10 minutes at RT. Unbound Crystal Violet was rinsed by washing with water and finally 33% acetic acid was added to dissolve the dye.
(§5) The optical density of each plate was measured on a μQuant spectrophotometer and the data were analyzed with Gen5 software (μQuant Biomolecular Spectrophotometer MQX200 and Gen5™ Microplate Data Collection & Analysis software, BioTek® Instruments. Inc, April 2008). Absorbance was measured at 570 nm for all assays and a second wavelength was measured in order to subtract noise. For the Methyl-Tetrazolium assay this second wavelength was 630 nm and for the Sulforhodamine B and Crystal Violet assays it was 690 nm.

[2] = system: T47D (human breast cancer); test: Sulforhodamine B viability assay, T47D; format: cell-based; parameters: key: absorbance (optical density) at 570 nm, second wavelength subtracted
Text: (§6) Three different viability assays were chosen to complement each other and yielded results dependent on concentration and cell line: the Methyl Tetrazolium dye assay, the Sulforhodamine B fluorescent dye assay, and the Crystal Violet dye assay.
as §1, §2, §3
For the Sulforhodamine B assay, 96-well plates were fixed by 10% trichloroacetic acid (Fluka, 91228) and were incubated at 4° C. for 1 hour. Afterwards, plates were rinsed with water and cells were stained with 0.4% Sulforhodamine B (Sigma, 341738), dissolved in 1% acetic acid (Carlo Ebra, 401422) for 15 minutes at room temperature (RT). The unbound stain was washed twice with 1% acetic acid. Finally, 10 mM Tris Buffer pH 10.5 (Sigma, T6791) was added to dissolve the dye.
as §5

HT55 (colorectal cancer) = test: Crystal Violet viability assay, HT55; format: cell-based, human; parameters: key: absorbance at 570 nm (crystal violet), background wavelength subtracted
Text: as §6, §1, §2, §3, §4, §5

N.N.[Cl][Pt][Cl] [cisplatin]
CVE 24 h Average ([1]; 22Rv1 Run 1, 0.1 μg/ml CDDP): 0.27
CVE 48 h Average ([1]; 22Rv1 Run 1, 0.1 μg/ml CDDP): 0.501
CVE 72 h Average ([1]; 22Rv1 Run 1, 0.1 μg/ml CDDP): 0.803
CVE 24 h Average ([1]; 22Rv1 Run 1, 1 μg/ml CDDP): 0.152
CVE 48 h Average ([1]; 22Rv1 Run 1, 1 μg/ml CDDP): 0.437
CVE 72 h Average ([1]; 22Rv1 Run 1, 1 μg/ml CDDP): 0.606
CVE 48 h Average ([1]; 22Rv1 Run 1, 10 μg/ml CDDP): 0.351
CVE 72 h Average ([1]; 22Rv1 Run 1, 10 μg/ml CDDP): 0.439
CVE 24 h Average ([1]; 22Rv1 Run 1, 100 μg/ml CDDP): 0.124
CVE 48 h Average ([1]; 22Rv1 Run 1, 100 μg/ml CDDP): 0.273
CVE 72 h Average ([1]; 22Rv1 Run 1, 100 μg/ml CDDP): 0.233
CVE 24 h Average ([1]; 22Rv1 Run 2, 0.1 μg/ml CDDP): 0.541
CVE 48 h Average ([1]; 22Rv1 Run 2, 0.1 μg/ml CDDP): 0.776
CVE 72 h Average ([1]; 22Rv1 Run 2, 0.1 μg/ml CDDP): 0.784
CVE 24 h Average ([1]; 22Rv1 Run 2, 1 μg/ml CDDP): 0.305
CVE 48 h Average ([1]; 22Rv1 Run 2, 1 μg/ml CDDP): 0.517
CVE 72 h Average ([1]; 22Rv1 Run 2, 1 μg/ml CDDP): 0.286
CVE 24 h Average ([1]; 22Rv1 Run 2, 10 μg/ml CDDP): 0.376
CVE 48 h Average ([1]; 22Rv1 Run 2, 10 μg/ml CDDP): 0.434
CVE 72 h Average ([1]; 22Rv1 Run 2, 10 μg/ml CDDP): 0.206
CVE 24 h Average ([1]; 22Rv1 Run 2, 100 μg/ml CDDP): 0.228
CVE 48 h Average ([1]; 22Rv1 Run 2, 100 μg/ml CDDP): 0.228
CVE 72 h Average ([1]; 22Rv1 Run 2, 100 μg/ml CDDP): 0.256
Average absorbance, CVE 24 h ([1]; 0.1 μg/ml CDDP): 0.85
Average absorbance, CVE 48 h ([1]; 0.1 μg/ml CDDP): 0.644
Average absorbance, CVE 72 h ([1]; 0.1 μg/ml CDDP): 0.45
Average absorbance, CVE 24 h ([1]; 1 μg/ml CDDP): 0.434
Average absorbance, CVE 48 h ([1]; 1 μg/ml CDDP): 0.404
Average absorbance, CVE 72 h ([1]; 1 μg/ml CDDP): 0.284
Average absorbance, CVE 24 h ([1]; 10 μg/ml CDDP): 0.295
Average absorbance, CVE 48 h ([1]; 10 μg/ml CDDP): 0.289
Average absorbance, CVE 72 h ([1]; 10 μg/ml CDDP): 0.283
Average absorbance, CVE 24 h ([1]; 100 μg/ml CDDP): 0.215
Average absorbance, CVE 48 h ([1]; 100 μg/ml CDDP): 0.212
Average absorbance, CVE 72 h ([1]; 100 μg/ml CDDP): 0.234
SRB Average ([2]; T47D Run 1, 24 h, 1 μg/ml CDDP): 1.786
SRB Average ([2]; T47D Run 1, 24 h, 10 μg/ml CDDP): 1.586
SRB Average ([2]; T47D Run 1, 24 h, 100 μg/ml CDDP): 1.494
SRB Average ([2]; T47D Run 1, 48 h, 0.1 μg/ml CDDP): 2.029
SRB Average ([2]; T47D Run 1, 48 h, 1 μg/ml CDDP): 1.913
SRB Average ([2]; T47D Run 1, 48 h, 10 μg/ml CDDP): 1.768
SRB Average ([2]; T47D Run 1, 72 h, 0.1 μg/ml CDDP): 2.34
SRB Average ([2]; T47D Run 1, 72 h, 1 μg/ml CDDP): 1.863
SRB Average ([2]; T47D Run 1, 72 h, 10 μg/ml CDDP): 1.428
SRB Average ([2]; T47D Run 2, 24 h, 0.1 μg/ml CDDP): 2.474
SRB Average ([2]; T47D Run 2, 24 h, 1 μg/ml CDDP): 1.601
SRB Average ([2]; T47D Run 2, 24 h, 10 μg/ml CDDP): 1.417
SRB Average ([2]; T47D Run 2, 24 h, 100 μg/ml CDDP): 1.102
SRB Average ([2]; T47D Run 2, 48 h, 0.1 μg/ml CDDP): 2.112
SRB Average ([2]; T47D Run 2, 48 h, 1 μg/ml CDDP): 1.969
SRB Average ([2]; T47D Run 2, 48 h, 10 μg/ml CDDP): 1.988
SRB Average ([2]; T47D Run 2, 48 h, 100 μg/ml CDDP): 1.708
SRB Average ([2]; T47D Run 2, 72 h, 0.1 μg/ml CDDP): 1.969
SRB Average ([2]; T47D Run 2, 72 h, 1 μg/ml CDDP): 1.201
SRB Average ([2]; T47D Run 2, 72 h, 10 μg/ml CDDP): 1.567
SRB Average ([2]; T47D Run 2, 72 h, 100 μg/ml CDDP): 1.513
SRB Average ([2]; T47D Run 3, 24 h, 0.1 μg/ml CDDP): 1.615
SRB Average ([2]; T47D Run 3, 24 h, 1 μg/ml CDDP): 1.846
SRB Average ([2]; T47D Run 3, 24 h, 10 μg/ml CDDP): 1.368
SRB Average ([2]; T47D Run 3, 24 h, 100 μg/ml CDDP): 1.34
SRB Average ([2]; T47D Run 3, 48 h, 0.1 μg/ml CDDP): 2.223
SRB Average ([2]; T47D Run 3, 48 h, 1 μg/ml CDDP): 2.03
SRB Average ([2]; T47D Run 3, 48 h, 10 μg/ml CDDP): 1.974
SRB Average ([2]; T47D Run 3, 48 h, 100 μg/ml CDDP): 1.758
SRB Average ([2]; T47D Run 3, 72 h, 0.1 μg/ml CDDP): 2.044
SRB Average ([2]; T47D Run 3, 72 h, 1 μg/ml CDDP): 1.344
SRB Average ([2]; T47D Run 3, 72 h, 10 μg/ml CDDP): 1.461
CVE Average (HT55 (colorectal cancer); HT55, Run 1, 24 h, 0.1 μg/ml CDDP): 0.838
CVE Average (HT55 (colorectal cancer); HT55, Run 1, 24 h, 1 μg/ml CDDP): 0.557
CVE Average (HT55 (colorectal cancer); HT55, Run 1, 24 h, 10 μg/ml CDDP): 0.728
CVE Average (HT55 (colorectal cancer); HT55, Run 1, 24 h, 100 μg/ml CDDP): 0.383
CVE Average (HT55 (colorectal cancer); HT55, Run 1, 48 h, 0.1 μg/ml CDDP): 0.588
CVE Average (HT55 (colorectal cancer); HT55, Run 1, 48 h, 1 μg/ml CDDP): 0.314
CVE Average (HT55 (colorectal cancer); HT55, Run 1, 48 h, 10 μg/ml CDDP): 0.405
CVE Average (HT55 (colorectal cancer); HT55, Run 1, 48 h, 100 μg/ml CDDP): 0.269
CVE Average (HT55 (colorectal cancer); HT55, Run 1, 72 h, 0.1 μg/ml CDDP): 0.901
CVE Average (HT55 (colorectal cancer); HT55, Run 1, 72 h, 1 μg/ml CDDP): 0.437
CVE Average (HT55 (colorectal cancer); HT55, Run 1, 72 h, 10 μg/ml CDDP): 0.436
CVE Average (HT55 (colorectal cancer); HT55, Run 1, 72 h, 100 μg/ml CDDP): 0.243
CVE Average (HT55 (colorectal cancer); HT55 Run 2, 24 h, 0.1 μg/ml CDDP): 1.745
CVE Average (HT55 (colorectal cancer); HT55 Run 2, 24 h, 1 μg/ml CDDP): 0.942
CVE Average (HT55 (colorectal cancer); HT55 Run 2, 24 h, 10 μg/ml CDDP): 1.075
CVE Average (HT55 (colorectal cancer); HT55 Run 2, 24 h, 100 μg/ml CDDP): 0.758
CVE Average (HT55 (colorectal cancer); HT55 Run 2, 48 h, 0.1 μg/ml CDDP): 0.793
CVE Average (HT55 (colorectal cancer); HT55 Run 2, 48 h, 1 μg/ml CDDP): 0.23
CVE Average (HT55 (colorectal cancer); HT55 Run 2, 48 h, 10 μg/ml CDDP): 0.281
CVE Average (HT55 (colorectal cancer); HT55 Run 2, 48 h, 100 μg/ml CDDP): 0.286
CVE Average (HT55 (colorectal cancer); HT55 Run 2, 72 h, 0.1 μg/ml CDDP): 0.937
CVE Average (HT55 (colorectal cancer); HT55 Run 2, 72 h, 1 μg/ml CDDP): 0.395
CVE Average (HT55 (colorectal cancer); HT55 Run 2, 72 h, 10 μg/ml CDDP): 0.326
CVE Average (HT55 (colorectal cancer); HT55 Run 2, 72 h, 100 μg/ml CDDP): 0.244
CVE Average (HT55 (colorectal cancer); HT55 Run 3, 24 h, 0.1 μg/ml CDDP): 0.591
CVE Average (HT55 (colorectal cancer); HT55 Run 3, 24 h, 1 μg/ml CDDP): 0.201
CVE Average (HT55 (colorectal cancer); HT55 Run 3, 24 h, 10 μg/ml CDDP): 0.812
CVE Average (HT55 (colorectal cancer); HT55 Run 3, 24 h, 100 μg/ml CDDP): 0.15
CVE Average (HT55 (colorectal cancer); HT55 Run 3, 48 h, 0.1 μg/ml CDDP): 1.099
CVE Average (HT55 (colorectal cancer); HT55 Run 3, 48 h, 1 μg/ml CDDP): 0.561
CVE Average (HT55 (colorectal cancer); HT55 Run 3, 48 h, 10 μg/ml CDDP): 1.712
CVE Average (HT55 (colorectal cancer); HT55 Run 3, 48 h, 100 μg/ml CDDP): 0.285
CVE Average (HT55 (colorectal cancer); HT55 Run 3, 72 h, 0.1 μg/ml CDDP): 1.228
CVE Average (HT55 (colorectal cancer); HT55 Run 3, 72 h, 1 μg/ml CDDP): 0.577
CVE Average (HT55 (colorectal cancer); HT55 Run 3, 72 h, 10 μg/ml CDDP): 2.329
CVE Average (HT55 (colorectal cancer); HT55 Run 3, 72 h, 100 μg/ml CDDP): 0.431
